Like-named read-outs stand apart in the source and are kept apart here. Starred links: 1 amine or outer side, 2 acyl side, 3 side chain; linkers in the order of their positions; H or OH if unused. Non-standard residues stand in square brackets, D forms with d. Groups on a side chain read outwards from the residue. No end group written: not given here. *: point of attachment. C18 diacid = O=C(O)CCCCCCCCCCCCCCCCC(=O)*; γGlu = O=C(O)[C@H](CCC(=O)[*:2])N[*:1]; AEEA = NCCOCCOCC(=O)O; Aib = CC(C)(N)C(=O)O
Columns and labels:
[1] = Effect on acute food intake in normal NMRI mice; type: in vivo; settings: 30 nmol/kg subcutaneously once, normalized to vehicle group, male NMRI mice
Description: Example 4: Effect on Acute Food Intake in Normal NMRI Mice
Male NMRI mice were obtained from Janvier (Janvier Labs, France) or from Charles River (Charles River Research Models & Services Germany GmbH) at the age of 3 weeks. The animals get a microchip (Datamars, Slim Microchip T-SL) for individual identification after delivery. They were housed with 4 mice per cage under a 12/12 dark-light cycle, light off at 3 p.m. Room temperature was controlled to 21° C. +/−1° C. and humidity 60%+/−20%. Mice had ad libitum access to regular rodent chow (KLIBA Nafag 3040 or Altromin 1324, Brogaarden, Denmark) and tap water.
Latest transfer into the HM2-System of MBRose, Denmark (real-time monitoring system of food- and water intake) of the animals 5 days before study start, to allow acclimatization to experimental conditions. As the animals were uniquely identified with the microchips, each individual animal was identified by its own microchip upon entry and exit from the food channel via antennae. Randomization of the mice for each study group (n=8; age earliest 6 weeks old) was based on food intake (middle of last three days 24 h-Intervall) and bodyweight directly before start of the study. A vehicle treated (50 mM phosphate buffer pH7.4 with 3.5% Mannitol) group was included in each experiment. To have the same nutrition standard for each animal the food access was locked eight hours before dark phase. One hour before night, the animals were once treated subcutaneously with the test peptide. Food intake was reported hourly for a period of 24 h.

hGIPR = biological target: T1, hGIPR (Homo sapiens, UniProt P48546); test: hGIPR CreLuc reporter gene assay in 0.5% and 100% plasma; type: cell-based; settings: CreLuc reporter gene assay
T1 construct: expressed in transfected cells; host or cells: CHO cells carrying a CRE-luciferase reporter gene
T1 sequence (P48546 22-466): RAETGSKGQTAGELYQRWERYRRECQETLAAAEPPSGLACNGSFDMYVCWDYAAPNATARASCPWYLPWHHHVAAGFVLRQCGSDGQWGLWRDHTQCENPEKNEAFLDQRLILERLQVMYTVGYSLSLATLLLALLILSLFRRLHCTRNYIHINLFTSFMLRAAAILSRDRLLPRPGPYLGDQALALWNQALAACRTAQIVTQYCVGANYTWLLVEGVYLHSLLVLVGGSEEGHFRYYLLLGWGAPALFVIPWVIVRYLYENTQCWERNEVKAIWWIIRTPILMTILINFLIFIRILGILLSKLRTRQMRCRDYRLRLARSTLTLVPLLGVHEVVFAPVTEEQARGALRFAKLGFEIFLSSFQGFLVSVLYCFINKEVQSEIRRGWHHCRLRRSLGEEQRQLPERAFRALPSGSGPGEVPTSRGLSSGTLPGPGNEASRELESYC
How it was run: (§1)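 HEK cells (GLP-1R, NPY2R) or CHO cells (GIPR) carrying a CRE-luciferase reporter, incubated 4 h at 37 °C with peptides in HBSS/20 mM HEPES pH 7.4 plus 0.5% human plasma, or in 100% plasma. Luminescence read; EC50 from 8-point variable-slope sigmoid fits.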

[2] = Mouse PK after intravenous application; type: in vivo; settings: mean residence time, intravenous 30-60 nmol/kg, male NMRI mice
Description: Pharmacokinetic parameters of the peptides were determined after intravenous application to NMRI mice. Male NMRI mice were obtained from Janvier Laboratories (France) weighing 30 to 40 g. Mice were housed in standard cages with a 12:12 hour light:dark cycle and standard food and water access ad libitum. Each test peptide was dissolved in 50 mM phosphate buffer (pH 7.4)/3.5% mannitol. Intravenous application of 30-60 nmol/kg was performed via the tail vein. Serial blood samples from conscious mice were collected from the saphenous vein in EDTA-containing vials at different time points up to 56 hours post-dosing. Subsequently, plasma was prepared by centrifugation for 5 min at approximately 5000 rpm and stored at −20° C. until quantification of the peptide plasma levels by liquid chromatography mass spectrometry (LC-MS). Individual plasma concentration—time profiles were analysed by a non-compartmental approach and the resulting pharmacokinetic parameters were calculated.

hNPY2R = biological target: T2, hNPY2R (Homo sapiens, UniProt P49146); test: hNPY2R CreLuc reporter gene assay in 0.5% and 100% plasma; type: cell-based; settings: CreLuc reporter gene assay
T2 construct: expressed in transfected cells; host or cells: HEK-293 cells carrying a CRE-luciferase reporter gene
T2 sequence (P49146 1-381): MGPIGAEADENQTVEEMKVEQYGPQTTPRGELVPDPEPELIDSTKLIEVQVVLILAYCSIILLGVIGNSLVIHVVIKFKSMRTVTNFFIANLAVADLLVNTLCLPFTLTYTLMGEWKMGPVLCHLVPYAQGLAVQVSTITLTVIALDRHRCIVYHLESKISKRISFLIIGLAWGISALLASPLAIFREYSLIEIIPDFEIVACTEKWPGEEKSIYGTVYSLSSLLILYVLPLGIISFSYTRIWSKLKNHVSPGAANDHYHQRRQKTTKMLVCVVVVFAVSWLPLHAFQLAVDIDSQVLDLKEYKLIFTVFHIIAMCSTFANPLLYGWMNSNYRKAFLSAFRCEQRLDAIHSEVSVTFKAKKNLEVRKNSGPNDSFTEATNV
How it was run: as §1

hGLP1R = biological target: T3, hGLP1R (Homo sapiens, UniProt P43220); test: hGLP1R CreLuc reporter gene assay in 0.5% and 100% plasma; type: cell-based; settings: CreLuc reporter gene assay
T3 construct: expressed in transfected cells; host or cells: HEK-293 cells carrying a CRE-luciferase reporter gene
How it was run: as §1

[3] = 0.5% human plasma, read-out: hGIPR 0.5% hP
[4] = 100% human plasma, read-out: hGIPR 100% hP
[5] = 0.5% human plasma, read-out: hNPY2R 0.5% hP
[6] = 0.5% human plasma, read-out: hGLP1R 0.5% hP

T3 sequence (P43220 24-463): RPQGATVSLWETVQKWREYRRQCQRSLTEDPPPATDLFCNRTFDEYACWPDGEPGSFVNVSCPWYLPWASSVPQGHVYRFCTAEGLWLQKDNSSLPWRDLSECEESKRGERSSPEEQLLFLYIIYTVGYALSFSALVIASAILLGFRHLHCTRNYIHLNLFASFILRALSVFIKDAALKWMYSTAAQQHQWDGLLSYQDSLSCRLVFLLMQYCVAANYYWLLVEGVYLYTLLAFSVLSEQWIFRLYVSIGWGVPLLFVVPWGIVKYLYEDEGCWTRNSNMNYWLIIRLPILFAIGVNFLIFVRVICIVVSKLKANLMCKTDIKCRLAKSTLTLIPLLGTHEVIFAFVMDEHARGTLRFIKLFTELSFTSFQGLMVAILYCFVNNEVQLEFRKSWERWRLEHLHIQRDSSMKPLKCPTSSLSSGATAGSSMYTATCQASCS

Compound	Acute Food Intake 24 h 30 nmol/kg [% CTL] [1]	EC50 (hGIPR; [3])	EC50 (hGIPR; [4])	MRT ([2]; plasma)	EC50 (hNPY2R; [5])	EC50 (hNPY2R; 100% human plasma, read-out: hNPY2R 100% hP)	EC50 (hGLP1R; [6])	MRT ([2]; in vivo)	EC50 (hGLP1R; 100% human plasma, read-out: hGLP1R 100% hP)
CC[C@H](C)[C@H](NC(=O)[C@H](CC(C)C)NC(=O)[C@H](Cc1c[nH]c2ccccc12)NC(=O)[C@H](CCC(N)=O)NC(=O)[C@@H](NC(=O)[C@H](Cc1ccccc1)NC(=O)[C@H](C)NC(=O)C(C)(C)NC(=O)[C@H](CCC(N)=O)NC(=O)[C@H](C)NC(=O)[C@H](CCC(N)=O)NC(=O)[C@H](CCCCN)NC(=O)[C@H](CCC(=O)O)NC(=O)[C@H](CC(C)C)NC(=O)C(C)(C)NC(=O)[C@@H](NC(=O)[C@H](CO)NC(=O)[C@H](Cc1ccc(O)cc1)NC(=O)[C@H](CC(=O)O)NC(=O)[C@H](CO)NC(=O)[C@@H](NC(=O)[C@H](Cc1ccccc1)NC(=O)[C@@H](NC(=O)CNC(=O)[C@H](CCC(=O)O)NC(=O)C(C)(C)NC(=O)[C@@H](N)Cc1ccc(O)cc1)[C@@H](C)O)[C@@H](C)O)[C@@H](C)CC)C(C)C)C(=O)N[C@@H](CCCCNC(=O)[C@@H](N)CCCCNC(=O)CC[C@H](NC(=O)CC[C@H](NC(=O)CC[C@H](NC(=O)CC[C@H](NC(=O)CC[C@H](NC(=O)CC[C@H](NC(=O)CCCCCCCCCCCCCCCCCCC(=O)O)C(=O)O)C(=O)O)C(=O)O)C(=O)O)C(=O)O)C(=O)O)C(=O)NCC(=O)NCC(=O)N1CCC[C@H]1C(=O)N[C@@H](CO)C(=O)N[C@@H](CCC(=O)O)C(=O)NCC(=O)N[C@@H](C)C(=O)N[C@@H](CO)C(=O)N[C@@H](CC(C)C)C(=O)N[C@@H](CCCNC(=N)N)C(=O)N[C@@H](Cc1c[nH]cn1)C(=O)N[C@@H](Cc1ccc(O)cc1)C(=O)N[C@@H](Cc1ccc(O)cc1)C(=O)N[C@@H](CC(N)=O)C(=O)N[C@@H](Cc1c[nH]c2ccccc12)C(=O)N[C@@H](CC(C)C)C(=O)N[C@H](C(=O)N[C@@H](CCCNC(=N)N)C(=O)N[C@@H](CCC(N)=O)C(=O)N[C@@H](CCCNC(=N)N)C(=O)N[C@@H](Cc1ccc(O)cc1)C(N)=O)[C@@H](C)O [Compound 220, Y-Aib-E-G-T-F-T-S-D-Y-S-I-Aib-L-E-K-Q-A-Q-Aib-A-F-V-Q-W-L-I-K(1,3)-GGPSEGASLRHYYNWLTRQRY-NH2.C20DA-gGlu-gGlu-gGlu-gGlu-gGlu-gGlu-eLys(1,2)]	45 % CTL	0.29 nM	1.83 nM	12.1 h	10.2 nM	42.6 nM	0.17 nM	–	–
CC[C@H](C)[C@H](NC(=O)[C@H](CC(C)C)NC(=O)[C@H](Cc1c[nH]c2ccccc12)NC(=O)[C@H](CCC(=O)O)NC(=O)[C@@H](NC(=O)[C@H](Cc1ccccc1)NC(=O)[C@H](C)NC(=O)C(C)(C)NC(=O)[C@H](CCC(N)=O)NC(=O)[C@H](C)NC(=O)[C@H](CCC(N)=O)NC(=O)[C@H](CCCCN)NC(=O)[C@H](CCC(=O)O)NC(=O)[C@H](CC(C)C)NC(=O)C(C)(C)NC(=O)[C@@H](NC(=O)[C@H](CO)NC(=O)[C@H](Cc1ccc(O)cc1)NC(=O)[C@H](CC(=O)O)NC(=O)[C@H](CO)NC(=O)[C@@H](NC(=O)[C@H](Cc1ccccc1)NC(=O)[C@@H](NC(=O)CNC(=O)[C@H](CCC(=O)O)NC(=O)C(C)(C)NC(=O)[C@@H](N)Cc1ccc(O)cc1)[C@@H](C)O)[C@@H](C)O)[C@@H](C)CC)C(C)C)C(=O)N[C@@H](CCCCNC(=O)[C@@H](N)CCCCNC(=O)[C@H](CCC(=O)O)NC(=O)CC[C@H](NC(=O)CC[C@H](NC(=O)CC[C@H](NC(=O)CC[C@H](NC(=O)CC[C@H](NC(=O)CCCCCCCCCCCCCCCCCCC(=O)O)C(=O)O)C(=O)O)C(=O)O)C(=O)O)C(=O)O)C(=O)NCC(=O)NCC(=O)N1CCC[C@H]1C(=O)N[C@@H](CO)C(=O)N[C@@H](CCC(=O)O)C(=O)NCC(=O)N[C@@H](C)C(=O)N[C@@H](CO)C(=O)N[C@@H](CC(C)C)C(=O)N[C@@H](CCCNC(=N)N)C(=O)N[C@@H](Cc1c[nH]cn1)C(=O)N[C@@H](Cc1ccc(O)cc1)C(=O)N[C@@H](Cc1ccc(O)cc1)C(=O)N[C@@H](CC(N)=O)C(=O)N[C@@H](Cc1c[nH]c2ccccc12)C(=O)N[C@@H](CC(C)C)C(=O)N[C@H](C(=O)N[C@@H](CCCNC(=N)N)C(=O)N[C@@H](CCC(N)=O)C(=O)N[C@@H](CCCNC(=N)N)C(=O)N[C@@H](Cc1ccc(O)cc1)C(N)=O)[C@@H](C)O [Compound 286, Y-Aib-E-G-T-F-T-S-D-Y-S-I-Aib-L-E-K-Q-A-Q-Aib-A-F-V-E-W-L-I-K(1,3)-GGPSEGASLRHYYNWLTRQRY-NH2.C20DA-gGlu-gGlu-gGlu-gGlu-gGlu-Glu-eLys(1,2)]	58 % CTL	–	–	–	–	–	–	11 h	–
H-Y[Aib]EGTFTSDYSI[Aib]LEKQAQ[Aib]EFVEWLIK([γGlu-γGlu-γGlu-γGlu-C18 diacid])GGPSEGASLRHYYNWLTRQRY-NH2 [Compound 276, Y-Aib-E-G-T-F-T-S-D-Y-S-I-Aib-L-E-K-Q-A-Q-Aib-E-F-V-E-W-L-I-K(1,3)-GGPSEGASLRHYYNWLTRQRY-NH2.C18DA-gGlu-gGlu-gGlu-gGlu(1,2)]	60 % CTL	0.37 nM	1.82 nM	–	20.7 nM	–	0.35 nM	–	16.7 nM
Y[Aib]EGTFTSDYSI[Aib]LEKQAQ[Aib]EFVEWLIK([AEEA-AEEA-γGlu-γGlu-γGlu-C18 diacid])GGPSEGASLRHYYNWLTRQRY-NH2 [Compound 284, Y-Aib-E-G-T-F-T-S-D-Y-S-I-Aib-L-E-K-Q-A-Q-Aib-E-F-V-E-W-L-I-K(1,3)-GGPSEGASLRHYYNWLTRQRY-NH2.C18DA-gGlu-gGlu-gGlu-OEG-OEG(1,2)]	–	0.33 nM	0.8 nM	6.8 h	18.8 nM	–	0.51 nM	–	–
